Columns and labels:
[1] = Acute toxicity, oral, LD50 (Litchfield and Wilcoxon); settings: mouse, in vivo, fasted male mice, confidence limits p=95% in brackets
Procedure: (1) The acute toxicity was determined on fasted male mice. The tested substances were orally administered and LD50 values (lethal dose for 50% of animals) were calculated according to the method of Litchfield and Wilcoxon (J. Pharmacol. exp. Ther. 96, 94-113, 1949). These LD50 values are given in mg/kg and also, when possible, with their confidence limits for p=95%.

[2] = system: guinea-pig ileum (histamine contractions); experiment: Antispasmodic activity in vitro, contractions caused by histamine; settings: added 15 minutes before spasm-producing agent
Procedure: (§1) (4) The antispasmodic activity was measured in vitro, on guinea-pig ileum, the contractions of which were caused by histammne (Hist.), acetylcholine (Achol) or barium chloride (BaCl2). The tested products were added to perfusion bath 15 minutes before the spasm-producing agents.
(§2) The dose is given in micograms (μg) per ml of bath causing complete spasm inhibition.

[3] = system: unanaesthetized, hypertension-suffering rat; experiment: Antihypertensive activity (systolic arterial pressure), oral; type: in vivo; settings: 60 mg/kg, hypertensive rat, 3 hours
Procedure: (2) The antihypertensive activity was measured on unanaesthetized, hypertension-suffering rat. The tested substances were orally given at a rate of 60 mg/kg. The systolic arterial pressure was measured every 30 minutes for 2 hours before and for 3 hours after the tested product was given. Results are expressed as follows: […]
O: no reduction of arterial pressure.
+: reduction lower than 10 mm Hg.
++: reduction of 10 to 20 mm Hg.
+++: reduction higher than 20 mm Hg.

femoral artery = experiment: Vasodilator activity, femoral artery (technique of perfused paw); type: in vivo; parameters: key: O: no action; +: slight activity; ++: effect equal to half the effect of papaverine; +++: effect equal to that of papaverine; ++++: effect higher than that of papaverine; settings: intra-arterial, 30 mg/kg, anaesthetized dog, vs papaverine at same dose
Procedure: (3) The vasodilator activity was measured at the level of femoral artery on anaesthetized dog (technique of perfused paw). The tested substances were given intra-arterially at the rate of 30 mg/kg. Results are expressed with respect to papaverine tested at the same dose.
++: effect equal to half the effect of papaverine.
+++: effect equal to that of papaverine.
++++: effect higher than that of papaverine.

[4] = system: guinea-pig ileum (acetylcholine contractions); experiment: Antispasmodic activity in vitro, contractions caused by acetylcholine; settings: added 15 minutes before spasm-producing agent
Procedure: as §1, §2

Row | Compound | LD50 [1] | ANTISPASMODIC ACTIVITY HIST. (dose causing complete spasm inhibition) [2] | ANTIHYPERTENSIVE ACTIVITY [3] | VASODILATOR ACTIVITY (femoral artery) | ANTISPASMODIC ACTIVITY ACHOL (dose causing complete spasm inhibition) [4]
1 | CC(NCCCSc1ccccc1)C(O)c1ccc2c(c1)CCS2 (stereo not shown) [No 60] | > 2000 mg/kg | 3.3 μg per ml | +++ (reduction higher than 20 mm Hg) | +++ | 1.7 μg per ml
2 | Cc1ccc(CCCCNC(C)C(O)c2ccc3c(c2)CCCS3)cc1 (stereo not shown) [No 34] | ~4000 mg/kg | 0.8 μg per ml | +++ (reduction higher than 20 mm Hg) | +++ | 0.8 μg per ml
3 | CC(NCCOc1ccccc1)C(O)c1ccc2c(c1)CCS2 (stereo not shown) [No 47] | > 4000 mg/kg | 1.7 μg per ml | ++ (reduction of 10 to 20 mm Hg) | ++ ++ | 1.7 μg per ml
4 | CC1Cc2cc(C(O)C(C)NCCCC(=O)c3ccc(F)cc3)ccc2O1 (stereo not shown) [No 105] | ~360 mg/kg | 3.3 μg per ml | +++ (reduction higher than 20 mm Hg) | +++ | 3.3 μg per ml
5 | CCCCCCCCNC(C)C(O)c1ccc2c(c1)CC(C)O2 (stereo not shown) [No 55] | 350 mg/kg | 3.3 μg per ml | +++ (reduction higher than 20 mm Hg) | +++ | 8.3 μg per ml
6 | CC(NCCc1ccccc1)C(O)c1ccc2c(c1)CCS2 (stereo not shown) [No 6] | < 500 mg/kg |  | + (reduction lower than 10 mm Hg) | +++ | 3.3 μg per ml
7 | CC1Cc2cc(C(O)C(C)NCCCCc3ccc(Cl)cc3)ccc2S1 (stereo not shown) [No 68] | < 500 mg/kg | 3.3 μg per ml | +++ (reduction higher than 20 mm Hg) | +++ | 0.8 μg per ml
8 | CCCCSCCCNC(C)C(O)c1ccc2c(c1)CCC2 (stereo not shown) [No 178] | 870 mg/kg | 1.7 μg per ml | ++ (reduction of 10 to 20 mm Hg) | ++++ | 
9 | CC(NCCOc1ccccc1)C(O)c1ccc2c(c1)SCCS2 (stereo not shown) [No 104] | > 4000 mg/kg | 8.3 μg per ml | + ++ |  | 16.7 μg per ml
10 | CCC(NCCOc1ccccc1)C(O)c1ccc2c(c1)CCS2 (stereo not shown) [No 126] | > 4000 mg/kg |  | +++ (reduction higher than 20 mm Hg) |  | 
11 | CC(NCCCCc1ccccc1)C(O)c1ccc2c(c1)SCCO2 (stereo not shown) [No 122] | 1650 mg/kg | 0.3 μg per ml | +++ (reduction higher than 20 mm Hg) | ++++ | 
12 | CC1CCc2cc(C(O)C(C)NCCCCc3ccccc3)ccc2S1 (stereo not shown) [No 5, 1-(2-methyl-6-thiochromanyl)-2-(4-phenylbutylamino)-1-propanol] | 3600 mg/kg |  | ++ (reduction of 10 to 20 mm Hg) | ++++ | 3.3 μg per ml
13 | CC(NCCOc1ccccc1)C(O)c1ccc2c(c1)SCCO2 (stereo not shown) [No 123] | > 4000 mg/kg | 0.8 μg per ml | +++ (reduction higher than 20 mm Hg) | ++++ | 
14 | CC1Cc2cc(C(O)C(C)NCCOCc3ccccc3)ccc2S1 (stereo not shown) [No 120] | ~1450 mg/kg | 0.8 μg per ml | ++ (reduction of 10 to 20 mm Hg) | +++ | 
15 | Cc1ccc(CCCCNC(C)C(O)c2ccc3c(c2)CCS3)cc1 (stereo not shown) [No 32] | 4000 mg/kg | 0.8 μg per ml | +++ (reduction higher than 20 mm Hg) |  | 1.7 μg per ml

Source: patent publication US4638070A, “Heterocyclic amino-alcohol derivatives” (Continental Pharma, priority 1980, dated 1987)
